From patent US5622947A, “Benzoheterocyclic compounds and vasopressin antagonist and oxytocin antagonist compositions containing a benzoheterocyclic compound” (Otsuka Pharmaceutical Co., Ltd., priority 1992, dated 1997)
Counter-ions that a name gives are not always drawn.

Key:
[1] = molecular target: T1, V2 Recepter (rat kidney plasma membrane preparations) (Rattus norvegicus, UniProt Q00788); assay: V2 Recepter binding assay; settings: [3H]-Arg-vasopressin 4×10^-10 M, 4° C., pH 8.0, rat kidney plasma membrane
T1 construct: rat kidney plasma membrane preparations; from tissue; host or cells: rat kidney plasma membranes
T1 sequence (Q00788 whole entry): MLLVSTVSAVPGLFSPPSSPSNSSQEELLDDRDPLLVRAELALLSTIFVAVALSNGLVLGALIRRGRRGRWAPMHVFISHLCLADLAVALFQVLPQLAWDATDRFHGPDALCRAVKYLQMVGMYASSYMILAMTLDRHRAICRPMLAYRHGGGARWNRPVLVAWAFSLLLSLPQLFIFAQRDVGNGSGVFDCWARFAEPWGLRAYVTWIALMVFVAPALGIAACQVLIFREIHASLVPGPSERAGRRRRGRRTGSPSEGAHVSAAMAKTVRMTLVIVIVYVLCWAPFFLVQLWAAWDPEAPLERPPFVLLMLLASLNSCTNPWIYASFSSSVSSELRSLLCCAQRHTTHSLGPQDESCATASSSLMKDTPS
Experimental: Test 2: V2 Recepter binding assay
By using rat kidney plasma membrane preparations prepared according to Hechter's method [by O. Hechter: J. Bio. Chem., 2.53, 3211 (1978)], the plasma membrane (100,000 dpm, 4×10^-10 M) of [^3 H]-Arg-vasopressin and a test compound (0.6 mg, 10^-10 to 10^-5 M) were incubated at 4° C. for 3 hours in 250 μl (in total volume) of 100 mM Tris-HCl buffer (pH=8.0), containing, 5 mM MgCl2, 1 mM EDTA and 0.1% BSA. After the incubation, the mixture, the mixture was filtered by using a glass filter (GF/F) so as to separate the membrane preparation combining with vasopressin, then washed twice with the buffer (5 ml). This glass filter was taken out and mixed with liquid scintillation cocktail. The amount of [^3 H]-vasopressin combining with the membrane was measured by a liquid scintillation counter and the rate of inhibitory effect of the test compound was calculated according to the following equation: Rate of the inhibitory
C1 : the amount of [^3 H]-vasopressin combining with the membrane in the presence of the testcompound of a known amount,
(§1) C0 : the amount of [^3 H]-vasopressin combining with the membrane in the absence of the test compound,
B1 : the amount of [^3 H]-vasopressin combining with the mebrane in the presence of the excess amount of vasopressin (10^-6 M).
The results are expressed as IC50 value, which is the concentration of the test compound required to achieve the inhibitory effect in the rate of 50%, and are shown in the following Table 157.

[2] = molecular target: T2, Oxytocin receptor (uterin muscle membrane preparation) (Rattus norvegicus, UniProt P70536); assay: Oxytocin receptor binding assay; settings: [3H]-oxytocin 10^-9 M, 25°, one hour, pH 8.0, uterin muscle membrane, DES-treated
T2 construct: was homogenized, which was used as a membrane; from tissue; host or cells: uterine muscle membranes from diethylstilbestrol-treated animals
T2 sequence (P70536 1-388): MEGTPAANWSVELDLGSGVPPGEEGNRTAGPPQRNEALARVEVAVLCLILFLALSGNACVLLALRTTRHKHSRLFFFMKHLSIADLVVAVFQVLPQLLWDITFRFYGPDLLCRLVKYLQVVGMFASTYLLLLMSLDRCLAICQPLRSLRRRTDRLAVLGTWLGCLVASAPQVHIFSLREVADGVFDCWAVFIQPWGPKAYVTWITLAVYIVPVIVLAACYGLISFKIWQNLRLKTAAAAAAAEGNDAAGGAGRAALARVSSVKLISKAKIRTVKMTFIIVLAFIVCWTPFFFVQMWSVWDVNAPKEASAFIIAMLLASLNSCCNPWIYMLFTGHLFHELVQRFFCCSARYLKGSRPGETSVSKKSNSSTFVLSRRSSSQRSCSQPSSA
Experimental: Test-5 Oxytocin receptor binding assay
In accordance with Chan's method [by W. Y. Chan, et al.: Endocrinology, 126, 2095-2101 (1990)], the uterin muscle benn injected subcutaneously with diethylstilbe-sterol (DES) the day before and was homogenized, which was used as a membrane prepara tion. The membrane preparation (0.2 mg), [^3 H]-oxytocin (100,000 dpm, 10^-9 M), a test compound (10^-9 to 10^-5 M) were incubated at 25°. for one hour in 100 mM Tris-HCl buffer (pH=8.0, 250 μl) containing 5 mM MgCl2, 1 mM EDTA and 0.1% BSA. The mixture was filtered through a glass filter (GF/F) so as to separate the membrane preparation combining with [^3 H]-oxytocin, then, was washed twicw with the buffer (5 ml). The glass filter was put into a vial and mixed with Aquasole (a liquid scintillation cocktail). The amount of [^3 H]-oxytocin combining w ith the membrane was measured by a liquid scintillation counter. The rate of the inhibitory effect of the test compound was calculated according to the equation as follows: […]
C1 : the amount of [^3 H]-oxytocin combining with the membrane in the presence of a test compound (in known amount),
C0 : the amount of [^3 H]-oxytocin combinig with the membrane in the absence of a test compound,
B: the amount of [^3 H]-oxytocin combining with the membrane in the presence of the excess amount of oxytocin (5×10^-6 M).
The results are expressed as IC50 values, which is the concentration of the test compound required to achieve the inhibitory effect in the rate of 50%.

[3] = molecular target: T3, V1 Recepter (rat liver plasma membrane preparations) (Rattus norvegicus, UniProt P30560); assay: V1 Recepter binding assay; settings: [3H]-Arg-vasopressin 2×10^-10 M, 37° C., 10 minutes, pH 8.0, rat liver plasma membrane
T3 construct: rat liver plasma membrane preparations; from tissue; host or cells: rat liver plasma membranes
T3 sequence (P30560 whole entry): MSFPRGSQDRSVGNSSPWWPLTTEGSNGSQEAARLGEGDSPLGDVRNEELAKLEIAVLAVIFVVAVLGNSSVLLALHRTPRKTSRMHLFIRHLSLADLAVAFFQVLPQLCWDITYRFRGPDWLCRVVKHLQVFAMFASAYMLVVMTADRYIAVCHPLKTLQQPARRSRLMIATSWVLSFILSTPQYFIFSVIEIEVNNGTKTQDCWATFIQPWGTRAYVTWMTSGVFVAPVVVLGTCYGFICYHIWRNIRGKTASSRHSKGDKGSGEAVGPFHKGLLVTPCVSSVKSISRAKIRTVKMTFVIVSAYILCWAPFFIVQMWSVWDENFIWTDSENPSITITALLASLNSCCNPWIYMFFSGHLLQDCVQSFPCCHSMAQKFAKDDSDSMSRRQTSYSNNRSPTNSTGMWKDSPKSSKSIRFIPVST
Experimental: Test-1: V1 Recepter binding assay
By using rat liver plasma membrane preparations prepared according to Ichiraha's method [by Akira Ichihara: J. Bio. Chem., 258, 9283 (1983)], the plasma membrane (50,000 dpm, 2×10^-10 M) of [^3 H]-Arg-vasopressin and a test compound (60 μg, 10^-8 to 10^-4 M) were incubated at 37° C. for 10 minutes in 250 μl (in total volume) of 100 mM Tris-HCl buffer (pH=8.0), containing 5 mM MgCl2, 1 mM EDTA and 0.1% BSA. After the incubation, the mixture was filtered three times by using a glass filter (GF/F) so as to separate the membrane preparation by combining with vasopressin and then washed with the buffer (5 ml). This glass filter was taken out and mixed with a liquid of scintillation cocktail. The amount of [^3 H]-vasopressin combining with the membrane was measured by liquid scintillation counter and the rate of inhibitory effect of the test compound was calculated according to the following equation: […]
C1 : the amount of [^3 H]-vasopressin combining with the membrane in the presence of the test compound of a known amount,
as §1
B1 : the amount of [^3 H]-vasopressin combining with the membrane in the presence of the excess amount of vasopressin (10^-6 M).
The results are expressed as IC50 value, which is the concentration of the test compound required to achieve the inhitory effect in the rate of 50% and are shown in the following Table 156.

IC50 [1] | IC50 [2] | IC50 [3] | Structure (SMILES)
12 nM |  |  | C=CCN(C)CCC1CCCN(C(=O)c2ccc(NC(=O)c3ccccc3Cl)cc2C)c2ccc(F)cc21 (stereo not shown) [Example 129, 5-[2-(N-Allyl-N-methylamino)ethyl]-7-fluoro-1-[2-methyl-4-(2-chlorobenzoylamino)benzoyl]-2,3,4,5-tetrahydro-1H-benzoazepine]
 | 190 nM |  | COc1cc(C(=O)N2CCCC(CC(=O)N(C)C)c3cc(Cl)ccc32)ccc1NC(=O)c1ccccc1Br (stereo not shown) [Example 120, 5-Dimethylaminocarbonylmethyl-7-chloro-1-[3-methoxy-4-(2-bromobenzoylamino)benzoyl]-2,3,4,5-tetrahydro-1H-benzoazepine]
 | 380 nM |  | CN1CCN(C(=O)CC2CCCN(C(=O)c3ccc(NC(=O)c4ccccc4Cl)cc3)c3ccc(Cl)cc32)CC1 (stereo not shown) [Example 116]
8 nM | 3000 nM |  | C#CCNCCC1CCCN(C(=O)c2ccc(NC(=O)c3ccccc3Cl)cc2C)c2ccc(Cl)cc21 (stereo not shown) [Example 103, 5-(2-Propargylaminoethyl)-7-chloro-1-[2-methyl-4-(2-chlorobenzoylamino)benzoyl]-2,3,4,5-tetrahydro-1H-benzoazepine.cndot.hydrochloride]
7.5 nM |  |  | Cc1cc(NC(=O)c2ccccc2Cl)ccc1C(=O)N1CCCC(CCn2cncn2)c2cc(Cl)ccc21 (stereo not shown) [Example 105, 5-[2-(1,2,4-Triazol-1-yl)ethyl]-7-chloro-1-[2-methyl-4-(2-chlorobenzoylamino)benzoyl]-2,3,4,5-tetrahydro-1H-benzoazepine]
 | 2600 nM |  | COc1cc(NC(=O)c2ccccc2Cl)ccc1C(=O)N1CCC=C(CCN2CCN(C(C)=O)CC2)c2cc(Cl)ccc21 [Example 179, 5-[2-(4-Acetyl-1-piperazinyl)ethyl]-7-chloro-1-[2-methoxy-4-(2-chlorobenzoylamino)benzoyl]-2,3,-dihydro-1H-benzoazepine]
 | 258 nM |  | COc1cc(NC(=O)c2ccccc2Cl)ccc1C(=O)N1CCCC(OCCNC2CCCC2)c2cc(Cl)ccc21 (stereo not shown) [Example 177, 5-(2-Cyclopentylaminoethoxy)-7-chloro-1-[2-methoxy-4-(2-chlorobenzoylamino)benzoyl]-2,3,4,5-tetrahydro-1H-benzoazepine]

Second part, the compound before the results:

Structure (SMILES) | IC50 [1] | IC50 [2] | IC50 [3]
Cc1cc(NC(=O)c2ccccc2Cl)ccc1C(=O)N1CCCC(CCn2ncnn2)c2cc(Cl)ccc21 (stereo not shown) [Example 99] | 12 nM | 2800 nM | 
C=CCN(C)CCC1CCCN(C(=O)c2ccc(NC(=O)c3ccccc3Cl)cc2C)c2ccc(Cl)cc21 (stereo not shown) [Example 100] | 4.7 nM | 4040 nM | 
C=CCOC1CCCN(C(=O)c2ccc(NC(=O)c3ccccc3C)cc2)c2ccc(Cl)cc21 (stereo not shown) [Example 64, 5-Allyloxy-7-chloro-1-[4-(2-methylbenzoylamino)benzoyl]-2,3,4,5-tetrahydro-1H-benzoazepine] |  |  | 45 nM
Cc1cc(NC(=O)c2ccccc2Cl)ccc1C(=O)N1CCCC(CCn2cnnn2)c2cc(Cl)ccc21 (stereo not shown) [Example 98] | 9 nM |  | 
Cc1cc(NC(=O)c2ccccc2Cl)ccc1C(=O)N1CCCC(CCN2CCCCC2)c2cc(Cl)ccc21 (stereo not shown) [Example 96, 5-[2-(1-Piperidinyl)ethyl]-7-chloro-1-[2-methyl-4-(2-chlorobenzoylamino)benzoyl]-2,3,4,5-tetrahydro-1H-benzoazepine.cndot.hydrochloride] | 9 nM | 4400 nM | 
Cc1cc(NC(=O)c2ccccc2Cl)ccc1C(=O)N1CCCC(OCCn2cnnn2)c2cc(Cl)ccc21 (stereo not shown) [Example 93, 5-[2-(1,2,3,4-Tetrazol-1-yl)ethoxy]-7-chloro-1-[2-methyl-4-(2-chlorobenzoylamino)benzoyl]-2,3,4,5-tetrahydro-1H-benzoazepine] | 14 nM |  | 
Cc1cc(NC(=O)c2ccccc2Cl)ccc1C(=O)N1CCCC(CCN2CCCC2)c2cc(Cl)ccc21 (stereo not shown) [Example 97, 5-[2-(1-Pyrrolidinyl)ethyl]-7-chloro-1-[2-methyl-4-(2-chlorobenzoylamino)benzoyl]-2,3,4,5-tetrahydro-1H-benzoazepine.cndot.hydrochloride] | 7.2 nM | 4070 nM | 
CC(=O)NC1CCN(CCC2CCCN(C(=O)c3ccc(NC(=O)c4ccccc4Cl)cc3C)c3ccc(Cl)cc32)CC1 (stereo not shown) [Example 76, 5-[2-(4-Acetylamino-1-piperidinyl)ethyl]-7-chloro-1-[2-methyl-4-(2-chlorobenzoylamino)benzoyl]-2,3,4,5-tetrahydro-1H-benzoazepine] | 14 nM |  | 
Cc1cc(NC(=O)c2ccccc2Cl)ccc1C(=O)N1CCCC(CCNC2CC2)c2cc(Cl)ccc21 (stereo not shown) [Example 102, 5-(2-Cyclopropylaminoethyl)-7-chloro-1-[2-methyl-4-(2-chlorobenzoylamino)benzoyl]-2,3,4,5-tetrahydro-1H-benzoazepine.cndot.hydrochloride] | 7.1 nM | 2900 nM | 
C=CCNCCC1CCCN(C(=O)c2ccc(NC(=O)c3ccccc3Cl)cc2C)c2ccc(F)cc21 (stereo not shown) [Example 101, 5-(2-Allylaminoethyl)-7-fluoro-1-[2-methyl-4-(2-chlorobenzoylamino)benzoyl]-2,3,4,5-tetrahydro-1H-benzoazepine] | 7 nM | 5300 nM | 
CC(=O)NC1CCN(CCOC2CCCN(C(=O)c3ccc(NC(=O)c4ccccc4Cl)cc3C)c3ccc(Cl)cc32)CC1 (stereo not shown) [Example 75, 5-[2-(4-Acetylamino-1-piperidinyl)ethoxy]-7-chloro-1-[2-methyl-4-(2-chlorobenzoylamino)benzoyl]-2,3,4,5-tetrahydro-1H-benzoazepine] | 32 nM |  | 
Cc1cc(NC(=O)c2ccccc2Cl)ccc1C(=O)N1CCCC(OCCn2cncn2)c2cc(Cl)ccc21 (stereo not shown) [Example 92] | 7.4 nM |  | 
COc1cc(NC(=O)c2ccccc2C)ccc1C(=O)N1CCC=C(CC(=O)N2CCN(C)CC2)c2cc(F)ccc21 [Example 86, 5-(4-Methyl-1-piperazinyl)carbonylmethyl-7-fluoro-1-[2-methoxy-4-(2-methylbenzoylamino)benzoyl]-2,3,-dihydro-1H-benzoazepine] | 59 nM |  | 
Cc1cc(NC(=O)c2ccccc2Cl)ccc1C(=O)N1CCCC(CCN2CCOCC2)c2cc(Cl)ccc21 (stereo not shown) [Example 95] | 17 nM |  | 
